This is an account of results in US20240384250A1, “FIBROBLAST GROWTH FACTOR 23 MODULATING COMPOUNDS” (THE UAB RESEARCH FOUNDATION, priority 2021, published 2024).

As usually defined, the Kd is the concentration at which binding is half-saturated.

For one assay, the target named is T1, FGF23/FGFR4 binding (Homo sapiens, UniProt P22455+Q9GZV9, R179Q).
T1 construct: Fc-FGFR4 protein (human ectodomain) was immobilized; purchased R&D Systems human FGF23 2604FG025/CF; human FGFR4 685FR050
Briefly: Surface plasmon resonance, FGF23 binding to surface FGFR4 with heparin or sKL in solution. The settings on record: heparin or sKL in solution. The method, then: For the direct quantitative analysis of label-free molecular interactions in real time, surface plasmon resonance studies were conducted using BIAcore T200 and T200 evaluation software (28975001, Cytiva). Sensor SA (BR100398) and CMS chips (BR100399) were from Cytiva. For the preparation of heparin chips, heparin (2 mg) and amine-PEG3-Biotin (2 mg, 21347, Pierce) were dissolved in 200 μl of H2O and 10 mg of NaCNBH3 was added. The reaction mixture was heated at 70° C. for 24 hours; an additional 10 mg of NaCNBH3 was added; and the reaction was heated at 70° C. for another 24 hours. After cooling to room temperature, the mixture was desalted with the spin column (3000 MWCO). Biotinylated heparin was collected, freeze dried, and used for chip preparation. Biotinylated heparin was immobilized to streptavidin chips according to the manufacturer's protocol. In brief, 20 μl of biotinylated heparin solution (0.1 mg/ml) in HBS-P running buffer (0.01 M N-2-hydroxyethylpiperazine-N′-2-ethanesulfonic acid, 0.15 M NaCl, 0.005% surfactant P20 [pH7.4]; BR100368, Cytiva) was injected over flow cell 2 of the streptavidin chip at a flow rate of 10 μl/min. The successful immobilization of heparin was confirmed by the observation of an approximately 200-resonance unit increase in the sensor chip. […] The response was monitored as a function of time (sensorgram) at 25° C.
A general note: Surface plasmon resonance follows binding to a sensor surface in real time, without labels.

In a further assay the target is T2, FGF23 (Homo sapiens, UniProt Q9GZV9, R179Q).
T2 construct: purchased R&D Systems 2604FG025/CF
T2 sequence (Q9GZV9 25-251 R179Q): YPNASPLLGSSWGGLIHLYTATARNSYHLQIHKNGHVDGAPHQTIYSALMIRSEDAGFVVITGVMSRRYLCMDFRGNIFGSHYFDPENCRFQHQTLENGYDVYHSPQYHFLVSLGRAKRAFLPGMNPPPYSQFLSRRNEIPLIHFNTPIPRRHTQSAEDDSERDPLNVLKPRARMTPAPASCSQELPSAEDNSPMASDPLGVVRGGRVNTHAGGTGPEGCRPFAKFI
Briefly: Surface plasmon resonance, heparin immobilized on chip. The assay is classed as binding. The note with it: SPR. The method, then: (§1) For the direct quantitative analysis of label-free molecular interactions in real time, surface plasmon resonance studies were conducted using BIAcore T200 and T200 evaluation software (28975001, Cytiva). Sensor SA (BR100398) and CMS chips (BR100399) were from Cytiva. For the preparation of heparin chips, heparin (2 mg) and amine-PEG3-Biotin (2 mg, 21347, Pierce) were dissolved in 200 μl of H2O and 10 mg of NaCNBH3 was added. The reaction mixture was heated at 70° C. for 24 hours; an additional 10 mg of NaCNBH3 was added; and the reaction was heated at 70° C. for another 24 hours. After cooling to room temperature, the mixture was desalted with the spin column (3000 MWCO). Biotinylated heparin was collected, freeze dried, and used for chip preparation. Biotinylated heparin was immobilized to streptavidin chips according to the manufacturer's protocol. In brief, 20 μl of biotinylated heparin solution (0.1 mg/ml) in HBS-P running buffer (0.01 M N-2-hydroxyethylpiperazine-N′-2-ethanesulfonic acid, 0.15 M NaCl, 0.005% surfactant P20 [pH7.4]; BR100368, Cytiva) was injected over flow cell 2 of the streptavidin chip at a flow rate of 10 μl/min. The successful immobilization of heparin was confirmed by the observation of an approximately 200-resonance unit increase in the sensor chip. The control flow cell (flow cell 1) was prepared by 1-minute injection with saturated biotin. For the preparation of FGFR4 chips, Fc-FGFR4 protein (human ectodomain) was immobilized on research grade CMS chips according to the standard amine coupling protocol. Briefly, carboxymethyl groups on the CMS chip surface were first activated using an injection pulse of […] of an equimolar mix of N-ethyl-N-(dimethylaminopropyl) carbodiimide and N-hydroxysuccinimide (final concentration 0.05 M, mixed immediately before injection). After activation, FGFR4 was diluted to […] in 100 mM sodium acetate (pH 5.5) buffer and injected over the activated biosensor surface. Excess unreacted sites on the sensor surface were deactivated with a 35 μl injection of 1 M ethanolamine. A reference flow cell was prepared using an injection pulse of […] of an equimolar mix of N-ethyl-N-(dimethylaminopropyl) carbodiimide and N-hydroxysuccinimide (final concentration 0.05 M, mixed immediately before injection) followed by a 35 μl injection of 1 M ethanolamine. For the measurement of interactions between FGF23 (human protein), FGFR4 (human ectodomain protein), klotho (human ectodomain, self-made; see above), and heparin, samples were diluted in HBS-P buffer. Different dilutions of protein were injected at a flow rate of 30 μl/min with HBS-P buffer as running buffer. At the end of the sample injection, HBS-P buffer was flowed over the sensor surface to facilitate dissociation. After a 3-minute dissociation time, the sensor surface was regenerated by injecting with 30 μl of 2 M NaCl to get a fully regenerated surface. The response was monitored as a function of time (sensorgram) at 25° C.

The target of another assay is T3, FGFR4 (Homo sapiens, UniProt P22455).
T3 construct: Fc-FGFR4 protein (human ectodomain) was immobilized; purchased R&D Systems 685FR050
Described as above. Type of assay: binding. The note with it: SPR. The method, then:
as §1

The next assay concerns the target T4, klotho (Homo sapiens, UniProt Q9UEF7).
T4 construct: The sKL recombinant protein produced is mouse aa 35-982 and human aa 34-981; made in house; host or cells: Expi293 (HEK293) cells, stably transfected
T4 sequence (Q9UEF7 34-981): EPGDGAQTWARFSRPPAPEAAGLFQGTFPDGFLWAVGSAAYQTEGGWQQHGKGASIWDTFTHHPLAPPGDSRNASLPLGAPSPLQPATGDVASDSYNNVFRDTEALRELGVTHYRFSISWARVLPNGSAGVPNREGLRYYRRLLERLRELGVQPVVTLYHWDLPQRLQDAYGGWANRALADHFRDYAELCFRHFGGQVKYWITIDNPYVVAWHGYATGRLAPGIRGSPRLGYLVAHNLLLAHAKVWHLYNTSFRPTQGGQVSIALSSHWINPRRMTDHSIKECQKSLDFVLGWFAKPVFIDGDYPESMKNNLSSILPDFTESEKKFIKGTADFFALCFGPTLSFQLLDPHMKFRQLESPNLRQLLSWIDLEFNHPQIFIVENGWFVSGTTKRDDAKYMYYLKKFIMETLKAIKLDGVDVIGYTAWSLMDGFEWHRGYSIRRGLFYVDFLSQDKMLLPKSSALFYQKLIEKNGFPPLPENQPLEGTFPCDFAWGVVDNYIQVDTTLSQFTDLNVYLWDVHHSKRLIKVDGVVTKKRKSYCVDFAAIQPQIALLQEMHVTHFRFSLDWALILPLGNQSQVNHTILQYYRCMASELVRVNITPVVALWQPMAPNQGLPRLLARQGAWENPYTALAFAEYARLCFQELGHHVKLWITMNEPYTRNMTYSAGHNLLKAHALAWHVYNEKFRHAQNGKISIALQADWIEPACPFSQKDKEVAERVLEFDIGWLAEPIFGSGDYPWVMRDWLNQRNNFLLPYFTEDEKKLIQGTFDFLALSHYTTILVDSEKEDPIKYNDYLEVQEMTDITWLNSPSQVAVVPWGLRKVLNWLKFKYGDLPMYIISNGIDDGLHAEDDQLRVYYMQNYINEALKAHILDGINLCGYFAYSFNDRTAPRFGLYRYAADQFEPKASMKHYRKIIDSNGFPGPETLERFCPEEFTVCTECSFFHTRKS
Described as above. Type of assay: binding. The note with it: SPR. The method, then: as §1

T3 sequence (P22455 22-369 limits assumed): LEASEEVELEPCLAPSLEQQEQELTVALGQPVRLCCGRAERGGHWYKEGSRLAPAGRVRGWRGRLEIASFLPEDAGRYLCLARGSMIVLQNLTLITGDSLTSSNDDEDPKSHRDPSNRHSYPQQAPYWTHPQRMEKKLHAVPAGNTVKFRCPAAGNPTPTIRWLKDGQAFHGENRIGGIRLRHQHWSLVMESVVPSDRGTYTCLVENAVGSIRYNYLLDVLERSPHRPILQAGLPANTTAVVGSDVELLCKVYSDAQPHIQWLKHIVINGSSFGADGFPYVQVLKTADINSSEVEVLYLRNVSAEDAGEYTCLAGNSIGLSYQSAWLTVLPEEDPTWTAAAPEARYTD
T1 sequence (P22455 22-369 limits assumed, one chain of several): as the sequence (P22455 22-369 limits assumed) above

Regarding heparin [reference compound], the “increase in FGF23/FGFR4 binding affinity” value at FGF23/FGFR4 binding is “approximately 3 fold”. For the same substance, the dissociation constant (Kd) at FGF23 came out at 7.6 nM; on FGFR4 (read-out: dissociation constant KD) it was 2.8 nM; at klotho, 15 nM. Besides, the values for the ka on FGF23 (25° C.), on FGFR4 (25° C.) and at klotho (25° C.) were 4.8 × 10^5 1/MS, 1.2 × 10^6 1/MS and 8.0 × 10^4 1/MS, respectively. The kd at FGF23 (25° C.) is on record as 3.6 × 10^−3 1/S; on klotho (25° C.), 1.1 × 10^−3 1/S.
